One series has as its target T1, human GlyT1c transporter (Homo sapiens, UniProt P48067).
T1 construct: expressed in transfected cells; host or cells: CHO cells (recombinant; membranes)
T1 sequence (P48067 1-706): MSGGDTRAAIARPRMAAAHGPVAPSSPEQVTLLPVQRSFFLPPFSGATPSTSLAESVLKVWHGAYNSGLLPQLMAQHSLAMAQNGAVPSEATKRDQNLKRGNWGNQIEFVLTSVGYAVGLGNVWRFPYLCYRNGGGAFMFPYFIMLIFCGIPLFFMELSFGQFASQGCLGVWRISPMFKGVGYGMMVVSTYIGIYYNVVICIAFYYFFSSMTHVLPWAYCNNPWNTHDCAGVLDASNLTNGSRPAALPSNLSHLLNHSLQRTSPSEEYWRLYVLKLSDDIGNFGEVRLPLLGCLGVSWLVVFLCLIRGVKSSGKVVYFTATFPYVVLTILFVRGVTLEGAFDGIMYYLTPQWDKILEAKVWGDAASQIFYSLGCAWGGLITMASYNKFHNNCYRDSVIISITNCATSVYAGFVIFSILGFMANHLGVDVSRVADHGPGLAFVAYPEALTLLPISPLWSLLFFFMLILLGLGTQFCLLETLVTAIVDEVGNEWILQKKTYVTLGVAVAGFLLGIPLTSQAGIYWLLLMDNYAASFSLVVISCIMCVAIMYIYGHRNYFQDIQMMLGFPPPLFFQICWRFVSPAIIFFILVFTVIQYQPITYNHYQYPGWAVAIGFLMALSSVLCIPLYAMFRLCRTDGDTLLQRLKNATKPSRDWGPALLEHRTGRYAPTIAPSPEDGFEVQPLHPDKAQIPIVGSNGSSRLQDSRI
The series can be described thus: Radioligand binding assay using recombinant CHO cell membranes expressing human GlyT1. Conditions: values given as upper bounds, read-out: radioligand binding Kiapp. On the procedure:
2. Radioligand Binding Assays Using Recombinant CHO Cell Membranes Expressing Human GlyT1:
Radioligand binding to human GlyT1c transporter-expressing membranes was determined as described in Mezler et al., Molecular Pharmacology 74:1705-1715, 2008.

The target in another series is T2, MDR1 (P-gp) (Homo sapiens, UniProt P08183).
T2 construct: expressed in transfected cells; host or cells: Madin-Darby Canine Kidney Type II cells (MDR1-MDCK)
T2 sequence (P08183 whole entry, species assumed): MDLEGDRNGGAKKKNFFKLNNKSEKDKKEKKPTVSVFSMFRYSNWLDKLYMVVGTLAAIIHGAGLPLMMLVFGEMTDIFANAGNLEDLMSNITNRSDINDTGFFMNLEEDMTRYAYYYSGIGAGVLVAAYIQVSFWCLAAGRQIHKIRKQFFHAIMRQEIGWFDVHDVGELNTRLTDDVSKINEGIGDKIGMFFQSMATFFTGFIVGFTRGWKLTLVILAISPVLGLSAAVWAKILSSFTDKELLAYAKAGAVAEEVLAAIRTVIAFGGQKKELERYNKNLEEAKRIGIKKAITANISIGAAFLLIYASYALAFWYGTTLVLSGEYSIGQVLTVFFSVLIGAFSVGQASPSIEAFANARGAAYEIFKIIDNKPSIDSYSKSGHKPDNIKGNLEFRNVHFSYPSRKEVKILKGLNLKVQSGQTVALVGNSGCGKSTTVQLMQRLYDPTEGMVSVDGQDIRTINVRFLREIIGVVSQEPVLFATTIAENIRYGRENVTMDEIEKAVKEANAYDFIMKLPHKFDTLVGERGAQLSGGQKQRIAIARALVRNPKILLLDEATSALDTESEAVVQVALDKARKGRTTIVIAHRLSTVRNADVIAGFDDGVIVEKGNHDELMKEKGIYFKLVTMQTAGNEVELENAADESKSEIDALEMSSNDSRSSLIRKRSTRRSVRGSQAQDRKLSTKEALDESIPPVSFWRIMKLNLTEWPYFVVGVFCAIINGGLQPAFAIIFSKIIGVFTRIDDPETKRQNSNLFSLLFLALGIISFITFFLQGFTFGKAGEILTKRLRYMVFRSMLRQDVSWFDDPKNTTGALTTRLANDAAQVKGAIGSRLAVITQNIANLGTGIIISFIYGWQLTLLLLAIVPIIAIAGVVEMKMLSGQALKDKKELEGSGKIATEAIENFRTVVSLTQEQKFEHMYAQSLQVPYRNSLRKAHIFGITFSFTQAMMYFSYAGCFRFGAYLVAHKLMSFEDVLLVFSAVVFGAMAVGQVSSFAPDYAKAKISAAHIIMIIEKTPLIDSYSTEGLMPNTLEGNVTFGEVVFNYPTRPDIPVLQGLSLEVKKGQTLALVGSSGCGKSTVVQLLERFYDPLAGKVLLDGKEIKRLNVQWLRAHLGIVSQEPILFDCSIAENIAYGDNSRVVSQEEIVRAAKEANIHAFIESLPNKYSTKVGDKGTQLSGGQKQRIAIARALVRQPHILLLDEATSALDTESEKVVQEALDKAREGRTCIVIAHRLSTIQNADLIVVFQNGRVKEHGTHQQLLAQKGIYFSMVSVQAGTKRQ
The series is described as follows: Efflux ratio by bidirectional transport in MDR1-MDCK cells. The class given is in vitro ADME. The settings on record: dog; MDR1-MDCK monolayers, 1 μM compound, HBSS pH 7.4, 1 h at 37 C; calculated from permeability coefficients. On the procedure: 3. Determination of Efflux Ratio Using Madin-Darby Canine Kidney Type II Cells
Bidirectional transport experiments were performed on Madin-Darby Canine Kidney Type II cells over-expressing multidrug resistance protein 1 (MDR1-MDCK) to evaluate the compounds as potential P-gp substrates.
Compounds were added at 1 μM in HBSS-pH 7.4 (hanks balanced salt solution) to either the apical or basolateral side of MDR1-MDCK cell monolayers grown on Millicell 96-Cell polycarbonate filters. Samples were collected from both apical and basolateral sides at time 0 and after 1 h incubation at 37 C, compounds concentrations were measured by HPLC/MS/MS and permeability coefficients were then determined in both transport directions. The efflux ratio was subsequently calculated from the permeability coefficient.

As a reminder, the efflux ratio is the permeability from basolateral to apical divided by that in the opposite direction, in the common usage. Regarding `CN[C@@H]1COc2ccc(CNS(=O)(=O)C3CCC3)cc2[C@@H]1Cc1ccccc1` (relative stereo) [Example 25, cis-Cyclobutanesulfonic acid (4-benzyl-3-methylamino-chroman-6-ylmethyl)-amide], the Ki on human GlyT1c transporter was ≤ 100 nM. The efflux ratio at 1 h, 1 μM on MDR1 (P-gp) was 1.4. In the case of `Cn1cnc(S(=O)(=O)NCc2ccc3c(c2)[C@H](Cc2ccccc2)[C@H](NCCC2CCCC2)CO3)c1` (relative stereo) [Example 34, cis-N-((-4-benzyl-3-((2-cyclopentylethyl)amino)chroman-6-yl)methyl)-1-methyl-1H-imidazole-4-sulfonamide 2,2,2-trifluoroacetate], the Ki at human GlyT1c transporter is ≤ 10000 nM. The same measure, in the same setting: the value for `CCCS(=O)(=O)NCc1ccc2c(c1)[C@H](Cc1ccccc1)[C@H](N)CO2` (relative stereo) [Example 71, cis-Propane-1-sulfonic acid (-3-amino-4-benzyl-chroman-6-ylmethyl)-amide] was ≤ 100 nM; that for `CN[C@@H]1COc2ccc(OCCNS(=O)(=O)c3cn(C)cn3)cc2[C@@H]1Cc1ccccc1` (relative stereo) [Example 2a, cis-N-(2-{[-4-Benzyl-3-(methylamino)-3,4-dihydro-2H-chromen-6-yl]oxy}ethyl)-1-methyl-1H-imidazole-4-sulfonamide] was ≤ 10 nM.

Source of the values: patent US8853196B2, “Aminochromane, aminothiochromane and amino-1,2,3,4-tetrahydroquinoline derivatives, pharmaceutical compositions containing them, and their use in therapy” (AbbVie Deutschland GmbH & Co. KG, priority 2011, dated 2014).
